Test results published in patent US9839241B2, “Methods, devices and systems for pulmonary delivery of active agents” (priority 2014, dated 2017).
Entries after “also recorded” stand apart in the source; their conditions may differ. Read-outs that look alike come from different tables or passages of the source.

Experiments:
[1] = PK study: plasma Δ^9-THC levels after single dose inhalation from cannabis flos with the metered-dose inhaler (MDI)
Experimental: A study was conducted in order to characterize the inter-individual variability of Δ^9-THC plasma levels during the absorption phase, upon using a hand-held metered-dose MDI device configured for pulmonary delivering pre-determined amounts of the active agent Δ^9-THC from a solid substance (cannabis-derived plant substance) upon heating the substance.
Routine medications were continued throughout the trial.

neuropathic pain = test: VAS pain intensity after pulmonary delivery of Δ^9-THC with the MDI; format: in vivo, human
Experimental: (§1) The study was used to further evaluate the pharmacodynamic effect of pulmonary delivery of Δ^9-THC on pain reduction from baseline using a 10 cm visual analog scale (VAS) pain scale (0 being no pain; and 10 being worst possible pain); for monitoring adverse effects, blood pressure and heart rate, and for estimating the degree of satisfaction with the use of the MDI on a 0-10 scale.
The study was conducted at the Pain Research Unit of Rambam Health Care Campus in Haifa, Israel.
(§2) Pain intensity reduction was assessed as a therapeutic effect by asking participants to indicate the intensity of their current pain on a 100 mm visual analog scale (VAS) between 0 (no pain) and 100 (worst possible pain) at baseline (prior to the inhalation) and at 20 and 90 minutes following the pulmonary delivery of the pharmaceutically active agent from cannabis. Adverse effects, in the form of psychotropic symptoms, were recorded at 5, 15, 30, 60 and 120 minutes post pulmonary delivery, along with those spontaneously reported by the participants. Adverse effects were evaluated according to standardized criteria in terms of severity, frequency, duration and relationship to the study's active agent. Adverse effects were graded using the NIH Division of AIDS table for scoring severity of adult adverse experiences. Blood pressure and pulse rate were also recorded before, during and after the pulmonary delivery.
Results are reported herein as mean values±1 standard deviation (±SD). For each one of the measured effects (VAS pain intensity, systolic and diastolic blood pressure, heart rate and satisfaction score), the mean and 95% confidence interval (CI) at different time points was plotted. Differences between VAS pain intensity values and satisfaction scores, before and after inhalation, were tested by two-tailed paired Student t-test. Blood pressure and heart rate values were compared among different time points by one-way ANOVA. P-values <0.05 were accepted as significant. All statistical analyses were performed using Minitab Statistical Software, version 16.

[2] = Monitoring of adverse effects, blood pressure and heart rate after inhalation; format: in vivo, human
Experimental: as §1, §2
Results are reported herein as mean values±1 standard deviation (±SD). […]

[3] = cited from earlier work; for mean Cmax increase per mg Δ^9-THC: continuous blood withdrawal
chronic neuropathic pain = details: cited from earlier work; for reduction of pain intensity: Wilsey et al. 2013, vaporized 10.3 mg total available Δ^9-THC in two sessions
[4] = Analysis of residual cannabis material after vaporization in the MDI

CCCCCc1cc(O)c2c(c1)OC(C)(C)[C@@H]1CCC(C)=C[C@@H]21 [Δ^9-THC, Δ9-tetrahydrocannabinol]
inter-individual variability of Cmax (coefficient of variation) ([1]; MDI device): 25.3%
AUC ([1]; human, plasma, inhaled or intranasal, 3.08 mg, AUC (Mean), mean of 8 participants, same single dose inhalation): 10.1 ng·h/mL
Cmax ([1]; human, plasma, inhaled or intranasal, 3.08 mg, Cmax (Mean), mean of 8 participants, same single dose inhalation): 38 ng/mL
Tmax ([1]; human, plasma, inhaled or intranasal, 3.08 mg, Tmax (Mean), mean of 8 participants, same single dose inhalation): 3 min
AUC(0-inf) ([1]; human, plasma, inhaled, 3.08 mg): 10.1 ng·h/mL
time of first detection in blood sample ([1]; post-inhalation, six patients without residual plasma THC at baseline): 1 min
increase of Cmax per mg of Δ^9-THC available in the cannabis used (mean) ([1]; pulmonary delivery method described herein (MDI)): 12.3 ng/ml/mg Δ^9-THC
plasma concentration profile over time ([1]; pulmonary delivery with the MDI): rapid absorption, followed by bi-phasic decline in plasma concentration over time
decrease of VAS pain intensity from baseline (neuropathic pain; 20 minutes after inhalation, baseline 7.5±1.4, 95% CI [2.1, 4.9], P=0.001): 3.4 points
VAS pain intensity versus baseline (neuropathic pain; 90 minutes post-dosing): virtually identical results as at baseline
time to reversal of pain reduction (neuropathic pain; single inhalation, 3.08±0.02 mg total available Δ^9-THC): ≤ 90 min
time to full recovery from light headedness ([2]; all the other patients, post-inhalation): ≤ 30 min
adverse effects (overall) ([2]; single dose inhalation with MDI, listed as THC): minimal, reversible and well tolerated; also recorded: minimal, reversible and receded rapidly
mean Cmax increase per mg Δ^9-THC ([3]; after the first puff of a 1.75% Δ^9-THC cigarette): 3.54 ng/ml per mg Δ^9-THC
mean Cmax increase per mg Δ^9-THC ([3]; after the first puff of a 3.55% Δ^9-THC cigarette): 4.28 ng/ml per mg Δ^9-THC
plasma Cmax levels per mg of Δ^9-THC administered ([3]; intravenous administration (Ohlsson et al. 1980)): 43.8 ng Δ^9-THC/ml plasma
inter-individual variability of Cmax (coefficient of variation) ([3]; oral administration): 42-115%
inter-individual variability of Cmax (coefficient of variation) ([3]; oromucosal route of delivery): 59-67%
inter-individual variability of Cmax (coefficient of variation) ([3]; smoking cigarettes): 32-115%
inter-individual variability of Cmax (coefficient of variation) ([3]; vaporizer (Abrams)): 47-85%
mean Cmax elevation (chronic neuropathic pain; Ware et al. 2010, single smoke inhalation of 25±1 mg cannabis, 9.4% Δ^9-THC, three times a day for 5 days): 45 ng/mL
reduction of neuropathic pain (plateau, ceiling effect) (chronic neuropathic pain; Wilsey et al. 2008, smoking 19 mg or 34 mg total available Δ^9-THC in 3 doses): 45%
reduction of pain intensity (chronic neuropathic pain; 3 hours): 31%
reduction of pain intensity (chronic neuropathic pain; 5 hours): 25%
cannabinol (product of THC oxidation) in residues [4]: no increase of cannabinol
